In patent US9193731B2, “Antimicrobial compounds and methods of making and using the same” (Melinta Therapeutics, Inc., priority 2009, dated 2015):

Test system: Escherichia coli strain ATCC25922
Assay: standard microdilution assay to determine minimum inhibitory concentrations (MICs)
Type: cell-based
Conditions: for MIC: Escherichia coli, ATCC25922, Escherichia coli strain ATCC25922, microdilution, read-out: E. coli ATCC25922 MIC; for E. coli ATCC25922 MIC: Escherichia coli strain ATCC25922, microdilution
Summary of the method: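 Broth microdilution MIC against E. coli ATCC25922, following CLSI protocols, typically in a 100 microliter final volume. Results reported as +/− relative to a 16 micrograms/ml cutoff.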

SMILES | MIC | E. coli ATCC25922 MIC
N=C(N)NCCCNCc1ccc(-c2cn3cc(-c4ccc(C(=O)N5CC6CC5CN6)cc4)[nH]c3nc2=O)cc1 (stereo not drawn) [Compound 745] | < 16 µg/mL | –
NCCCNCc1ccc(-c2cn3cc(-c4ccc(S(=O)(=O)N5CCOCC5)cc4)[nH]c3nc2=O)cc1 [Compound 746] | > 16 µg/mL | –
N=C(N)NCCCNCc1ccc(-n2cc3cc(-c4cc(C(=O)N5CCN(c6ccc(F)cc6)CC5)cc(N5CCNCC5)c4)[nH]c3nc2=O)cc1 [Compound 755] | < 16 µg/mL | –
N=C(N)NCCCNCc1ccc(-n2cc3cc(-c4ccc(S(=O)(=O)N(Cc5ccccc5SC(F)(F)F)C5CCNCC5)cc4)[nH]c3nc2=O)cc1 [Compound 756] | – | + (a “+” indicates that the compound has an MIC value of 16 micrograms/ml or less)
N=C(N)NCCCNCc1ccc(-n2cc3cc(-c4ccc(S(=O)(=O)N(Cc5ccncc5)C5CCNCC5)cc4)[nH]c3nc2=O)cc1 [Compound 757] | < 16 µg/mL | –
N=C(N)NCCCNCc1ccc(-n2cc3cc(-c4ccc(S(=O)(=O)N(CC5CCOCC5)C5CCNCC5)cc4)[nH]c3nc2=O)cc1 [Compound 758] | – | + (a “+” indicates that the compound has an MIC value of 16 micrograms/ml or less)
N=C(N)NCCCNCc1ccc(-n2cc3cc(-c4ccc(S(=O)(=O)N(Cc5ccc(Cl)c(SC(F)(F)F)c5)C5CCNCC5)cc4)[nH]c3nc2=O)cc1 [Compound 759] | – | + (a “+” indicates that the compound has an MIC value of 16 micrograms/ml or less)
NCCCNCc1ccc(-n2cc3cc(-c4cc(C(=O)Nc5ccc(F)cc5)cc(N5CCNCC5)c4)[nH]c3nc2=O)cc1 [Compound 760] | < 16 µg/mL | –
N=C(N)NCCCNCc1ccc(-n2cc3cc(-c4cc(C(=O)Nc5ccc(F)cc5)cc(N5CCNCC5)c4)[nH]c3nc2=O)cc1 [Compound 761] | < 16 µg/mL | –
N=C(N)NCCCNCc1ccc(-c2cn3cc(-c4ccc(S(=O)(=O)N5CCOCC5)cc4)[nH]c3nc2=O)cc1 [Compound 762] | > 16 µg/mL | –
CCOCc1cc2cn(-c3ccc(CNCCCN)cc3)c(=O)nc2[nH]1 [Compound 764] | > 16 µg/mL | –
N=C(N)NCCCNCc1ccc(-n2cc3cc(-c4ccc(S(=O)(=O)N(Cc5cc(OC(F)(F)F)ccc5F)C5CCNCC5)cc4)[nH]c3nc2=O)cc1 [Compound 767] | – | + (a “+” indicates that the compound has an MIC value of 16 micrograms/ml or less)
N=C(N)NCCCNCc1ccc(-n2cc3cc(-c4ccc(S(=O)(=O)N(CC5COc6ccccc6O5)C5CCNCC5)cc4)[nH]c3nc2=O)cc1 (stereo not drawn) [Compound 768] | – | + (a “+” indicates that the compound has an MIC value of 16 micrograms/ml or less)
N=C(N)NCCCNCc1ccc(-n2cc3cc(-c4ccc(S(=O)(=O)N(Cc5ccc6nonc6c5)C5CCNCC5)cc4)[nH]c3nc2=O)cc1 [Compound 769] | – | + (a “+” indicates that the compound has an MIC value of 16 micrograms/ml or less)
N=C(N)NCCCNCc1ccc(-n2cc3cc(-c4ccc(S(=O)(=O)N(CCOc5ccc(F)cc5)C5CCNCC5)cc4)[nH]c3nc2=O)cc1 [Compound 770] | – | + (a “+” indicates that the compound has an MIC value of 16 micrograms/ml or less)
CN(CCO)C(=O)c1ccc(-c2cn3cc(-c4ccc(CNCCCN)cc4)c(=O)nc3[nH]2)cc1 [Compound 771] | < 16 µg/mL | –
N=C(N)NCCCNCc1ccc(-c2cn3cc(-c4ccc(S(=O)(=O)NC5CCNCC5)cc4)[nH]c3nc2=O)cc1 [Compound 772] | < 16 µg/mL | –
NCCCNCc1ccc(-n2cc3cc(-c4cccc(N5CCNCC5)c4)[nH]c3nc2=O)cc1 [Compound 775] | < 16 µg/mL | –
N=C(N)NCCCNCc1ccc(-c2cn3cc(-c4ccc(C(=O)NC5CN6CCC5CC6)cc4)[nH]c3nc2=O)cc1 (stereo not drawn) [Compound 778] | < 16 µg/mL | –
NCCCNCc1ccc(-n2cc3cc(CCN4CCS(=O)(=O)CC4)[nH]c3nc2=O)cc1 [Compound 784] | > 16 µg/mL | –
N=C(N)NCCCNCc1ccc(-n2cc3cc(CCN4CCS(=O)(=O)CC4)[nH]c3nc2=O)cc1 [Compound 785] | > 16 µg/mL | –
